Test results as given in ChEMBL document CHEMBL3885861, “Open TG-GATES”.

Species: Rattus norvegicus
Test: Open TG-GATES - Regimen: Single
Format: toxicity, organism-based, Sprague-Dawley
Set-up: regimen Single, gender Male, age 6 weeks
Conditions: in vivo, po, 500 mg/kg, route gavage, dose level High; for APTT / Bas / Eos / Fbg / Hb / Ht / Lym / MCH / MCHC / MCV / Mono / Neu / PT / Plat / RBC / Ret / WBC: tissue Blood; for KIDNEY_L / KIDNEY_R / KIDNEY_TOTAL: tissue Kidney; for LIVER: tissue Liver; for A/G / ALP / ALT / AST / BUN / CRE / Ca / Cl / DBIL / GLC / IP / K / LDH / Na / PL / RALB / TBIL / TC / TG / TP / gamma-GTP: tissue Plasma

## CN1C(=O)OC(C)(C)C1=O [TRIMETHADIONE]
3 h
  TERMINAL_BW: 212 g
  APTT: 16.8 s
  Bas: 0%
  Eos: 0.8%
  Fbg: 267.8 mg/dL
  Hb: 12.7 g/dL
  Ht: 38.3%
  Lym: 79.2%
  MCH: 21.5 pg
  MCHC: 33.2%
  MCV: 64.8 fL
  Mono: 2.4%
  Neu: 17%
  PT: 14 s
  Plat: 113.4 x10_4/uL
  RBC: 591.4 x10_4/ul
  Ret: 8.8%
  WBC: 80.3 x10_2/uL
  KIDNEY_L: 1 g
  KIDNEY_R: 0.9 g
  KIDNEY_TOTAL: 1.9 g
  LIVER: 9.1 g
  A/G: 0.9
  ALP: 1375.2 IU/L
  ALT: 39.6 IU/L
  AST: 70.6 IU/L
  BUN: 8.6 mg/dL
  CRE: 0.2 mg/dL
  Ca: 10.5 mg/dL
  Cl: 107.2 meq/L
  DBIL: 0.002 mg/dL
  GLC: 174.2 mg/dL
  IP: 8.8 mg/dL
  K: 4.2 meq/L
  LDH: 108 IU/L
  Na: 139.4 meq/L
  PL: 150.4 mg/dL
  RALB: 2.4 g/dL
  TBIL: 0.058 mg/dL
  TC: 84.2 mg/dL
  TG: 60.6 mg/dL
  TP: 5.2 g/dL
  gamma-GTP: 1 IU/L
6 h
  TERMINAL_BW: 209.4 g
  APTT: 16.1 s
  Bas: 0.2%
  Eos: 1.2%
  Fbg: 280.2 mg/dL
  Hb: 12.9 g/dL
  Ht: 38.9%
  Lym: 79.6%
  MCH: 21.1 pg
  MCHC: 33.1%
  MCV: 63.7 fL
  Mono: 1.6%
  Neu: 17%
  PT: 14.1 s
  Plat: 121.7 x10_4/uL
  RBC: 611.6 x10_4/ul
  Ret: 8.2%
  WBC: 94.3 x10_2/uL
  KIDNEY_L: 1 g
  KIDNEY_R: 0.9 g
  KIDNEY_TOTAL: 1.9 g
  LIVER: 8.5 g
  A/G: 0.9
  ALP: 1302 IU/L
  ALT: 31 IU/L
  AST: 66.8 IU/L
  BUN: 8.2 mg/dL
  CRE: 0.2 mg/dL
  Ca: 10.6 mg/dL
  Cl: 107.2 meq/L
  DBIL: 0 mg/dL
  GLC: 173.2 mg/dL
  IP: 9.4 mg/dL
  K: 4.1 meq/L
  LDH: 72 IU/L
  Na: 141 meq/L
  PL: 139.2 mg/dL
  RALB: 2.4 g/dL
  TBIL: 0.058 mg/dL
  TC: 80.2 mg/dL
  TG: 35.8 mg/dL
  TP: 5.2 g/dL
  gamma-GTP: 1.4 IU/L
9 h
  TERMINAL_BW: 209 g
  APTT: 15.6 s
  Bas: 0%
  Eos: 0.8%
  Fbg: 253.2 mg/dL
  Hb: 12.6 g/dL
  Ht: 37.9%
  Lym: 75.2%
  MCH: 21.4 pg
  MCHC: 33.4%
  MCV: 64.3 fL
  Mono: 1.8%
  Neu: 21.8%
  PT: 14.5 s
  Plat: 117.7 x10_4/uL
  RBC: 589.4 x10_4/ul
  Ret: 8%
  WBC: 81.5 x10_2/uL
  KIDNEY_L: 1 g
  KIDNEY_R: 1 g
  KIDNEY_TOTAL: 2 g
  LIVER: 8.2 g
  A/G: 0.9
  ALP: 1539.2 IU/L
  ALT: 29 IU/L
  AST: 65.4 IU/L
  BUN: 7.6 mg/dL
  CRE: 0.2 mg/dL
  Ca: 10.2 mg/dL
  Cl: 105.8 meq/L
  DBIL: 0 mg/dL
  GLC: 158.4 mg/dL
  IP: 10.3 mg/dL
  K: 3.8 meq/L
  LDH: 69.4 IU/L
  Na: 140.6 meq/L
  PL: 127.8 mg/dL
  RALB: 2.4 g/dL
  TBIL: 0.056 mg/dL
  TC: 67.4 mg/dL
  TG: 28.2 mg/dL
  TP: 5.1 g/dL
  gamma-GTP: 1.2 IU/L
24 h
  TERMINAL_BW: 215.3 g
  APTT: 17.7 s
  Bas: 0%
  Eos: 0.8%
  Fbg: 286.8 mg/dL
  Hb: 13.6 g/dL
  Ht: 40.5%
  Lym: 78%
  MCH: 21.1 pg
  MCHC: 33.6%
  MCV: 62.7 fL
  Mono: 2.6%
  Neu: 18.4%
  PT: 13.8 s
  Plat: 129.1 x10_4/uL
  RBC: 646.2 x10_4/ul
  Ret: 6.9%
  WBC: 101.5 x10_2/uL
  KIDNEY_L: 0.9 g
  KIDNEY_R: 1 g
  KIDNEY_TOTAL: 1.9 g
  LIVER: 9.7 g
  A/G: 0.9
  ALP: 1799.8 IU/L
  ALT: 49.4 IU/L
  AST: 82.2 IU/L
  BUN: 13 mg/dL
  CRE: 0.2 mg/dL
  Ca: 10.6 mg/dL
  Cl: 101.6 meq/L
  DBIL: 0.006 mg/dL
  GLC: 165.2 mg/dL
  IP: 7.4 mg/dL
  K: 3.9 meq/L
  LDH: 96.8 IU/L
  Na: 144 meq/L
  PL: 137.2 mg/dL
  RALB: 2.6 g/dL
  TBIL: 0.046 mg/dL
  TC: 75.6 mg/dL
  TG: 99.4 mg/dL
  TP: 5.6 g/dL
  gamma-GTP: 1 IU/L
